Format in all cases: cell-based
Test [1] has as its target T1, thromboxane receptor sites (Oryctolagus cuniculus, UniProt Q6WQI8).
T1 construct: contraction to 11,9-(epoxymethano) PGH2 (U-46619)
T1 sequence (Q6WQI8 1-233): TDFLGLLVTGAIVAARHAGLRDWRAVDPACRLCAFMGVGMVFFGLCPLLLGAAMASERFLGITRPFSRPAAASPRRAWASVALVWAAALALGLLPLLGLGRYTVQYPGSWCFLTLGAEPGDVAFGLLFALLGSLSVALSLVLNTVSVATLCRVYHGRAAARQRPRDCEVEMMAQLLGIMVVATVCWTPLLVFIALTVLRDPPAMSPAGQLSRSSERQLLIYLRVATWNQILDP
Briefly: Rabbit Aorta System (inhibition of tension response of spiral strips of thoracic aorta to 11,9-(epoxymethano) PGH2). To be noted: for Kb: Gaddum-Schild Equation, agonist 11,9-(epoxymethano) PGH2, compound added 50 minutes before agonist, 37° C, typical values, read-out: Affinity Constants (KB) Rabbit Aorta (converted). On the procedure:
(§1) The compound of Example 2 and various of the compounds of Example 8 are tested in the following three systems.
Sprial strips of thoracic aorta are suspended in Kreb's-Henseleit solution aerated with 95% O2 /5% CO2 and maintained at 37° C. Tension changes are recorded with a Grass FTO3 force transducer. Initially, cumulative dose response curves to the agonist 11,9-(epoxymethano) PGH2 are obtained (typically at concentrations of 2×10^-9, 1×10^-8, 5×10^-8 and 2.5×10^-7 M). In a second experiment, the compound under test is added 50 minutes previous to the addition of the series of agonist doses.
(§2) In the case of each system, the affinity constant, KB, for the compound under test is calculated according to the Gaddum-Schild Equation (based on Law of Mass Action). [formula]

Test [2] has as its target T2, thromboxane receptor sites (Cavia porcellus, UniProt A0A286Y4I8).
T2 construct: from tissue; host or cells: guinea pig trachea, spiral strips
T2 sequence (A0A286Y4I8 1-347): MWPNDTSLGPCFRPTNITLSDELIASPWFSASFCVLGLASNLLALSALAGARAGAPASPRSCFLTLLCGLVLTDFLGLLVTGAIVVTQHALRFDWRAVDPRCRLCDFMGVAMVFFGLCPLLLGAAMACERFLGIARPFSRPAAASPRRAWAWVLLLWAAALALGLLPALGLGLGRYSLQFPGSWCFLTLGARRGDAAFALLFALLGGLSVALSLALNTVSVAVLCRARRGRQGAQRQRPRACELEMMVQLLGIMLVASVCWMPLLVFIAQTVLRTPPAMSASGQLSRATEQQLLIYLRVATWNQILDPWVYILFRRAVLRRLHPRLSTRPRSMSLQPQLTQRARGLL
Briefly: Guinea Pig Trachea System (inhibition of tension response of spiral strips of trachea to 11,9-(epoxymethano) PGH2). The note with it: Gaddum-Schild Equation; agonist 11,9-(epoxymethano) PGH2; atropine sulphate and indomethacin present; compound added 50 minutes before agonist; 37° C; typical values; read-out: Affinity Constants (KB) Guinea Pig Trachea (converted). Here is the method:
as §1
Guinea Pig Trachea System
Spiral strips of trachea are suspended in Kreb's-Henseleit solution, additionally containing atropine sulphate (2×10^-8 M) and indomethacin (10^-6), aerated with 95% O2 /5% CO2 and maintained at 37° C. Tension changes are recorded with a Grass FTO3 force transducer. Initially, cumulative dose response curves to the agonist 11,9-(epoxymethano) PGH2 are obtained (typically at the same concentrations as for the rabbit aorta system). In a second experiment, the compound under test is added 50 minutes previous to the addition of the series of agonist doses.
as §2

Test [3] concerns the target T3, thromboxane receptor sites (Homo sapiens, UniProt P21731).
T3 construct: Platelet-rich plasma is obtained from fresh, citrated human blood; endogenous in cells; host or cells: human platelets in platelet-rich plasma from fresh citrated blood
T3 sequence (P21731 1-343): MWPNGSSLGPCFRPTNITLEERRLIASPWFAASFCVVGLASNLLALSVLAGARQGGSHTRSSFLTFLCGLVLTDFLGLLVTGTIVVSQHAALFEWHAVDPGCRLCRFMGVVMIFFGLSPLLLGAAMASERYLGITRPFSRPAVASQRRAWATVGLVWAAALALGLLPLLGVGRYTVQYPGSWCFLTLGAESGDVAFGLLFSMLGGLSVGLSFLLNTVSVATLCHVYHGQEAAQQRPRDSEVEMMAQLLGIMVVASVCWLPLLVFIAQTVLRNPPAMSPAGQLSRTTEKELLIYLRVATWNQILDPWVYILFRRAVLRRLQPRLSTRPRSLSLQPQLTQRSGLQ
Briefly: Human Platelet System (inhibition of aggregation by 11,9-(epoxymethano) PGH2 in platelet-rich plasma). To be noted: Gaddum-Schild Equation, agonist 11,9-(epoxymethano) PGH2, compound added 5 minutes before agonist, typical values, read-out: Affinity Constants (KB) Human Platelets (converted). On the procedure:
as §1
Platelet-rich plasma is obtained from fresh, citrated human blood. Addition of the agonist 11,9-(epoxymethano) PGH2 (1×10^-7 to 5×10^-7 M) causes immediate aggregation recorded as an increase in light transmission (600 nm). In a second experiment the compound under test is added 5 minutes previous to the addition to the PGH2 analogue. The dose of the PGH2 analogue added is then increased to a level which gives a similar response to that obtained in the absence of antagonist.
as §2

In the case of `O=C(O)CCC/C=C\C[C@H]1[C@H]2CC[C@H](C2)[C@@H]1CNC(=O)Nc1ccccc1` (relative stereo) [--CH2 NHCONHC6 H5, 5-endo-(6'-Carboxyhex-2'Z-enyl)-6-exo-[N-(phenylcarbamoyl)-aminomethyl]-bicyclo[2,2,1]heptane], the Kb in test [1] is 1000 nM; in test [2], 323 nM; in test [3] it was 3570 nM. Also, in test [1] (in words), the “pure antagonist activity in the rabbit aorta system” value is on record as “pure antagonist activity”.
In the case of `COc1ccc(NC(=O)NCCC2C3C=CC(C3)C2C/C=C\CCCC(=O)O)cc1` (centres unmarked) [--(CH2)2 NHCONHC6 H4 OCH3 (p)], the Kb is 833 nM in test [1] and 145 nM in test [2].
With `O=C(O)CCC/C=C\CC1C2C=CC(C2)C1CCNC(=O)Nc1ccccc1` (centres unmarked) [--(CH2)2 NHCONHC6 H5], the Kb in test [1] was 345 nM; in test [2], 196 nM; in test [3], 29400 nM.
`COc1ccc(NC(=S)NCCC2C3C=CC(C3)C2C/C=C\CCCC(=O)O)cc1` (centres unmarked) [--(CH2)2 NHCSNHC6 H4 OCH3 (p)]: the Kb in test [1] was 526 nM; in test [3] it was 12500 nM.
With `COc1ccc(NC(=S)NC(C)CC2C3C=CC(C3)C2C/C=C\CCCC(=O)O)cc1` (centres unmarked) [--CH2 CH(CH3)NHCSNHC6 H4 OCH3 (p)], the results for the Kb in test [1], in test [2] and in test [3] were 1050 nM, 123 nM and 5000 nM, respectively.
Consider `COc1ccc(NC(=S)NCC2C3C=CC(C3)C2C/C=C\CCCC(=O)O)cc1` (centres unmarked) [--CH2 NHCSNHC6 H4 OCH3 (p)], for which the Kb in test [1] is 169 nM; in test [2], 154 nM; in test [3], 13900 nM.
